The target in assay [1] is T1, LSD2 (Homo sapiens, UniProt Q8NB78).
T1 construct: full-length LSD2; by word order LSD2 from ActiveMotif
T1 sequence (Q8NB78 1-822): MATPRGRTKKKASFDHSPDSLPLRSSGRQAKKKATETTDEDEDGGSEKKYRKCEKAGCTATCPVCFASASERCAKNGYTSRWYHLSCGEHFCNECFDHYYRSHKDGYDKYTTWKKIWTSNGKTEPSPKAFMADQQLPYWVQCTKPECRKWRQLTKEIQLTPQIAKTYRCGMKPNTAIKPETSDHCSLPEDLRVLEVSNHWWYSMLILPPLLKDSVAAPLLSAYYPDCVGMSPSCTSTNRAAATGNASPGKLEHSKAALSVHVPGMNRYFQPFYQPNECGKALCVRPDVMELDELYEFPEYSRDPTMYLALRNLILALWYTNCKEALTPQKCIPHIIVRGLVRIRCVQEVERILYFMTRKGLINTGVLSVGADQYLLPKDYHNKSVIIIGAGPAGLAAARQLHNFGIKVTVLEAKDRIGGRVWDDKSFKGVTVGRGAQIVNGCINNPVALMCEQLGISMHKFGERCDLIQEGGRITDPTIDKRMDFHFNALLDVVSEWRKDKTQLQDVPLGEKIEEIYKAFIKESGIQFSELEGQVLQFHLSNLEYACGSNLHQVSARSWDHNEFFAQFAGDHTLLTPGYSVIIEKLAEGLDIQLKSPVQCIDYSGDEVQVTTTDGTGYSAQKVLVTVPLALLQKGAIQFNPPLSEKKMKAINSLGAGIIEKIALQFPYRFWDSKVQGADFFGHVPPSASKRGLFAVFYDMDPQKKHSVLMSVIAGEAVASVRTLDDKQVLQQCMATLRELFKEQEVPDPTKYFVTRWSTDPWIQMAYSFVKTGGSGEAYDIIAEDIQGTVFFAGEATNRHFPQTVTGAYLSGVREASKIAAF
Kind of assay: Lance Ultra demethylase TR-FRET enzyme inhibition assay, LSD2. The format is biochemical. The note with it: full-length LSD2 172 nM, Bio-H3K4me2 substrate, 1 h, mean ± SD, n = 3. An excerpt:
(§1) These were utilized in both in vitro and in vivo assays. Iscove’s Modified Dulbecco’s Medium (IMDM), Roswell Park Memorial Institute (RPMI)-1640 medium, fetal bovine serum (FBS) and penicillin/streptomycin were purchased from Gibco (Grand Island, New Nork, United States). Recombinant human LSD1 (172–852 aa) and full-length LSD2 were obtained from Sino Biological Inc. and ActiveMotif.
(§2) The inhibitory effects of the tested compounds on LSD1 and LSD2 enzymes were methodically assessed using the Lance Ultra LSD1 Histone H3-Lysine 4 Demethylase Assay Kit from PerkinElmer, adhering to previously published methodologies ([Li et al., 2022]). In brief, the reaction was initiated by adding 4 μL of enzyme solution, with concentrations specified at 2 nM for LSD1 or 172 nM for LSD2, 4 μL of substrate solution [2.5 μM Bio-H3K4me2 ([…])], and 2 μL of tested compound to a Tris buffer (50 mM Tris-HCl, 50 mM NaCl, 0.01% Tween 20, 1 mM DTT, 10 μM FAD, 10% glycerol, pH 9.0) at room temperature and incubated for 1 h. Following the incubation, 5 μL of a detection mixture, comprising an Eu-labeled H3K4me0 antibody and ULight Streptavidin, was added to the reaction. The fluorescence intensity was then measured employing TR-FRET mode with excitation and emission wavelengths set at 320 nm and 665 nm, respectively, utilizing the Envision (PerkinElmer) system. Each experiment was performed in triplicate.
In general terms: TR-FRET usually uses a lanthanide donor and a delayed reading to cut background.

The target in assay [2] is T2, LSD1 (Homo sapiens, UniProt O60341).
T2 construct: Recombinant human LSD1 (172–852 aa); by word order LSD1 from Sino Biological
Kind of assay: Lance Ultra LSD1 demethylase TR-FRET enzyme inhibition assay. In kind it is biochemical. The note with it: for LSD2/LSD1 selectivity (folds): ratio of LSD2 IC50 to LSD1 IC50; for IC50: recombinant human LSD1 (172–852 aa) 2 nM, Bio-H3K4me2 substrate, 1 h, TR-FRET, mean ± SD, n = 3.
Text: as §1, §2

The subject of assay [3] is RPMI-8226 cells. Kind of assay: MTS cell proliferation assay. In kind it is cell-based. To be noted: Homo sapiens, LSD1-non-sensitive RPMI-8226 cells, 72 h. On the procedure: (§3) The myeloid leukemia cell lines MV-4-11, MOLT-4, MOLM-16, HL-60, and the human B lymphocyte cell line […] were purchased from the American Type Culture Collection (ATCC, Manassas, VA, United States). The myeloid leukemia cell line HAL-01 was obtained from the Deutsche Sammlung von Mikroorganismen und Zellkulturen GmbH (DSMZ, Braunschweig, Germany). All cells were cultured in IMDM or RPMI -1640 medium supplemented with 10% FBS, 100 U/mL penicillin, and 100 μg/mL streptomycin. The cells were maintained in a humidified incubator with an atmosphere of 5% CO2 at 37°C.
(§4) The in vitro anti-proliferative activity of the compounds was determined using the CellTiter 96® AQueous NonRadioactive Cell Proliferation Assay Kit (Promega, Madison, United States) as previously described ([Ji et al., 2017]). In brief, 5–10 × 10^3 cells and 180 μL of medium were first seeded into each well of a 96-well plate. Subsequently, the cells were exposed to either 0.2% Dimethyl sulfoxide (DMSO, Aladdin Reagent, Shanghai, China) or a serial dilution of the compounds, prepared from a 10 mM stock solution in DMSO, with the final concentration of DMSO being 0.2% for 72 h. 20 μL of MTS reagent was added to each well, and the culture was incubated in the dark at 37°C for 4 h. Finally, the optical density (OD) was then recorded at 490 nm and 690 nm using a microplate reader from Molecular Devices. The proliferation inhibition rate was calculated according to the following formula: inhibition ratio = (OD of DMSO treated wells - OD of compound treated wells)/(OD of DMSO treated wells - OD of blank wells) × 100%. The IC50 values of the compounds inhibiting cell proliferation were calculated using GraphPad Prism 10 (GraphPad Software Inc., San Diego, CA).
(In general: Tetrazolium dyes change colour on reduction, which living cells bring about.)

Assay [4] has as its system MV-4-11 cells. The assay can be described thus: MTS cell proliferation assay. The format is cell-based. To be noted: Homo sapiens, MV4-11, LSD1-addicted MV-4-11 leukemia cells, 72 h. On the procedure: as §3, §4

On to `O=S(=O)(c1cccc(-c2ccccc2)c1)N1CCc2cc(C3CC3NCC3CCNCC3)ccc21` (stereo not drawn) [LTM-2], for which the IC50 (in general, the midpoint of a concentration-inhibition curve) in assay [1] was 2200 nM; in assay [2], 10.2 ± 2.71 nM; in assay [3], greater than 100 µM; in assay [4], 0.74 ± 0.06 µM. In addition, the “LSD2/LSD1 selectivity (folds)” value in assay [2] came out at 215 folds.
Consider `O=C(O)c1ccc(CN2CCC(CN[C@@H]3C[C@H]3c3ccccc3)CC2)cc1` [GSK2879552, reference compound], for which the IC50 came out at 104 ± 5.75 nM in assay [1], 24.5 ± 2.26 nM in assay [2], 21.3 ± 2.69 µM in assay [3] and 1.17 ± 0.28 µM in assay [4]. Moreover, in assay [2], the “LSD2/LSD1 selectivity (folds)” value amounted to 4 folds.
The matching figures for `C=CCc1cccc(S(=O)(=O)N2CCc3cc(C4CC4NCC4CCNCC4)ccc32)c1` (stereo not drawn) [LTM-4]: 861 ± 26.7 nM, 8.92 ± 0.57 nM, greater than 100 µM, 0.63 ± 0.05 µM and 97 folds.
As to `O=S(=O)(c1cccc(CC2CCCCC2)c1)N1CCc2cc(C3CC3NCC3CCNCC3)ccc21` (stereo not drawn) [LTM-6], the IC50 is greater than 5000 nM in assay [1], 16.5 ± 2.39 nM in assay [2], greater than 100 µM in assay [3] and 0.98 ± 0.07 µM in assay [4]. Further, the “LSD2/LSD1 selectivity (folds)” value in assay [2] was greater than 302 folds.
The matching figures for `O=S(=O)(c1ccc(CO)c(Cl)c1)N1CCc2cc(C3CC3NCC3CCNCC3)ccc21` (stereo not drawn) [LTM-3]: 3050 nM, 4.57 ± 0.32 nM, greater than 100 µM, 0.32 ± 0.04 µM and 668 folds.
The matching figures for `O=S(=O)(c1cccc(CC2CC2)c1)N1CCc2cc(C3CC3NCC3CCNCC3)ccc21` (stereo not drawn) [LTM-5]: 674 ± 21.5 nM, 7.31 ± 0.46 nM, greater than 100 µM, 0.51 ± 0.03 µM and 92 folds.

Values taken from paper PMC11903733 (Frontiers in Pharmacology, 2025).
